Patent publication US11771124B2, “Composition comprising mannose oligosaccharide and process for making same and use thereof” (CARGILL, INCORPORATED, priority 2017, dated 2023)
Marks after values point to notes of the source that are not given here.

Assays:
[1] = Trial 3: broiler performance with or without chlortetracycline; type: in vivo, broiler chickens; settings: Composition A dose 0.02%
C2Be1 cell line = assay: Intestinal cell proliferation in vitro (BrdU ELISA); type: cell-based
Method: Cells were treated with products under serum-limited conditions for 4-5 days. BrdU ELISA is used to measure the amount of proliferation, where it measures the amount of BrdU incorporated into proliferating cells (the more proliferation, the more BrdU that will be detected in the DNA of the cells). Levels of proliferation are expressed as a ratio calculated by dividing the BrdU incorporation of test wells by that of the controls that has medium only. […] The assay is repeated in triplicate on two separate occasions. […]

Molecule	BW35 ([1]; broiler chickens up to 35 days of age)	ADFI 0-35 ([1]; broiler chickens)	ADG 0-35 ([1]; broiler chickens)	BW0 ([1]; broiler chickens)	F:G 0-35 ([1]; broiler chickens)	% compared to media only (control), Mean (C2Be1 cell line; EGF concentration 10)	Proliferation Ratio (relative to control = 1), Mean (C2Be1 cell line; EGF concentration 10)	% compared to media only (control), Mean (C2Be1 cell line; EGF concentration 100)	Proliferation Ratio (relative to control = 1), Mean (C2Be1 cell line; EGF concentration 100)
CN(C)[C@@H]1C(O)=C(C(N)=O)C(=O)[C@@]2(O)C(O)=C3C(=O)c4c(O)ccc(Cl)c4[C@@](C)(O)[C@H]3C[C@@H]12 [CTC, chlortetracycline]	1978.6^b g	90.8c g	55.4^b g	40.2^ns g	1.64^b	–	–	–	–
EGF: epithelial growth factor, positive control known to affect cell proliferation	–	–	–	–	–	113.5%	1.13	119.6%	1.20
